Consider four compounds from patent US4919937A, “Percutaneous administration of tamoxifen” (priority 1984, dated 1990).

Series [1] in a line: radioactive 4-hydroxytamoxifen applied on the skin of a healthy subject, urinary radioactivity in 15 days and circulating blood. The format is in vivo. An excerpt:
A small portion of the radioactivity is metabolized to unidentified products (3%). In parallel, this same product in radioactive form was applied on the skin of a healthy subject, and a calculation was made of the radioactivity appearing in the urine in 15 days following administration of the product. […] It is only as a secondary effect that it reaches the liver, where it is inactivated.

Series [2] in a line: tracer doses of tritiated 4-hydroxytamoxifen applied in alcoholic solution 24 hours before excision of cancerous breasts. The settings on record: human, breast tissue, topical or ocular, read-out: portion of the radioactivity metabolized to unidentified products. The format is in vivo.
Series [3] has as its system protein structures corresponding to hormonal receptors. The series is described as above. In kind it is in vivo.
Series [4] in a line: cutaneous absorption. The format is in vivo. The settings on record: skin, topical or ocular; percutaneous; read-out: coefficient of cutaneous absorption. An excerpt:
(§1) The daily doses of product to be administered are easy to calculate in terms of the absorption coefficients of the drugs and the doses which it is desired to obtain for 4-hydroxytamoxifen and progesterone at the level of their receptor molecules.

The test system of series [5] is receptor molecules in cancerous mammary tumors. In words: percutaneous application on the skin overlying cancerous mammary tumors. In kind it is in vivo.
The conditions of series [6]: tamoxifen per os; 4-hydroxytamoxifen orally or parenterally, other than percutaneously; cited from earlier work.
Series [7] is described as follows: solubility in alcohol. In kind it is physicochemical.
From the text: as §1

The conditions of series [8]: passage through the liver; cited from earlier work.
The test system of series [9] is progesterone receptor. Conditions: common knowledge; cited from earlier work.
The conditions of series [10]: cited from earlier work; for hepatic by-pass after percutaneous administration: alcoholic solution.
Series [11] deals with progesterone receptors. Nature of the series: tracer doses of tritiated progesterone administered percutaneously under the same conditions. The format is in vivo. The procedure: In another experiment, tracer doses of tritiated progesterone were administered under the same conditions as 4-hydroxytamoxifen.

On to `CC/C(=C(\c1ccc(O)cc1)c1ccc(OCCN(C)C)cc1)c1ccccc1` [4-hydroxytamoxifen, 1-[4-(2-N-dimethylaminoethoxy)phenyl]-1-(4-hydroxyphenyl)-2-phenylbut-1-(Z)-ene], for which the “product in circulating blood” value in series [1] (circulating blood) is “only traces of the product are detectable”. The “destruction of the product from urinary elimination” value in series [1] (healthy subject, urine, 15 days) was “weak and gradual destruction of the product”. Besides, the metabolised at 24 h in [2] is 3%. Besides, in series [3], the “form found at the hormonal receptors” value was “appeared in its original form at the level of the protein structures corresponding to hormonal receptors”. Besides, the Fa in [4] was ~1%. The “passage through the cutaneous barrier and uptake on receptor molecules in tumors” value in series [5] (60% strength alcoholic solution) was “capable of passing through the cutaneous barrier and being taken up on the receptor molecules in these tumors”. Also, the “harmful side effects: stimulation of the ovaries” value in series [6] was “detrimental paradoxical stimulation of the ovaries”. Further, in series [7], the solubility in alcohol entry is given as “soluble in alcohol”. For the same compound, the “metabolism/degradation after oral administration” value (“metabolism/degradation” for short) in series [8] is listed as “more rapidly degraded than tamoxifen”.
`CC(=O)[C@H]1CC[C@H]2[C@@H]3CCC4=CC(=O)CC[C@]4(C)[C@H]3CC[C@]12C` [progesterone]: in series [4], the Fa was found to be 10%. Besides, the “action on the progesterone receptor” value in [9] is “binds to is own receptor, which it activates”. Also, the solubility in alcohol result in [7] was “soluble in alcohol”. Further, the “metabolism/degradation” value in series [8] is listed as “completely destroyed during its passage through the liver”. In series [10] (alcoholic solution or 60% strength aqueous alcoholic gel), the topical retention is 48 h. In addition, in series [10], the “hepatic by-pass after percutaneous administration” value is recorded as “hepatic by-passes thus produced were demonstrated”. In series [11] (blood), the “radioactivity in the blood” value is on record as “No radioactivity circulates in the blood”. Further, in [11] (conclusion), the “uptake by specific receptors and inactivation” value is “taken up by specific receptors and that it is inactivated for the most part in situ”. For the same compound, the “form found, binding to the progesterone receptors and metabolism” value in [11] (tritiated, percutaneous, excised cancerous breast) is “appeared in its original form, partly bound to the progesterone receptors and partly metabolized”. In addition, in series [11] (urine), the “metabolites in the urine” value is “various metabolites of progesterone appeared in the 56 hours following the experiment”.
Turning to `CC/C(=C(\c1ccccc1)c1ccc(OCCN(C)C)cc1)c1ccccc1` [tamoxifen, 1-[4-(2-N-dimethylaminoethoxy)phenyl]-1,2diphenylbut-1-(Z)-ene], in [5] (percutaneous, breast), the “activation to the 4-hydroxy derivative by the percutaneous route” value is reported as “cannot be activated to its 4-hydroxy derivative by the percutaneous route”. Also, the “harmful side effects: stimulation of the ovaries” value in [6] is listed as “a paradoxical stimulation of the ovaries”. In addition, in [8], the “metabolism/degradation” value is “converted during its passage through the liver to numerous metabolites”.
Consider `C[C@]12CC[C@H]3[C@@H](CCC4=CC(=O)CC[C@@]43C)[C@@H]1CC[C@@H]2O` [testosterone], for which the “hepatic by-pass after percutaneous administration” value in series [10] is recorded as “hepatic by-passes thus produced were demonstrated”.
